# Test results reported in patent publication US6143763A, “Carbostyril derivatives” (D. Western Therapeutics Institiute, priority 1995, dated 2000).
# Columns and labels:
# [1] = test system: left common carotid artery injured by balloon; test: Intima thickening inhibitory activity after balloon injury (3H-thymidine in carotid artery); type: in vivo, male SD rats; settings: Rattus norvegicus, oral
# Experimental: Pharmacological Experiment 3 Intima thickening inhibitory activity
# Male SD rats (6-week old) were separated into groups (8 rats per each group) and numbered. A test compound solution, which was prepared by suspending a test compound in 1% hydroxypropylmethyl cellulose 2910 TC-5 (HPMC, manufactured by Shin-etsu Chemical Co., Ltd.) was orally administered to the rats. In the control group, 1% HPMC solution was orally administered instead of the test compound solution. One or two hours thereafter, two french balloon catheters (manufactured by Baxter Travenol Inc.) were inserted into the left common carotid artery of the rats, and the artery was injured by abrading five times with a balloon. The day of balloon abrasion was considered as Day 0. On the following day (Day 1), a test compound was orally administered to the rats two times a day (in the morning and in the evening). On Day 2, 1.48 MBq/ml of ^3 H-thymidine (dose: 5 ml/kg, manufactured by NEN Research Products, Ltd.) was injected at the tail vein of the rats about one hour after the administration of the test compound so that the time after the balloon injury was fixed to the same in each rat. Precisely 45 minutes after the injection of ^3 H-thymidine at the tail veil, the common carotid artery of the rats was taken out.
# In the test compound-treated group, only the left common carotid artery which was injured by balloon was taken out, and in the control group, both the left and right common carotid arteries were taken out. The common carotid artery thus obtained was cut to pieces of exact 1 cm long, and the unnecessary portions such as the outer membrane or the nerves were completely removed. The common carotid artery was put into a glass vial, and thereto was added a 0.5 N sodium hydroxide (0.5 ml), and the mixture was incubated at 37° C. overnight to be solubilized. The mixture was neutralized with a 5 N hydrochloric acid (0.05 ml), and thereto was further added an aqueous hydrogen peroxide solution (0.1 ml). Aquasol II (10 ml, manufactured by Du Pont Co.) was added thereto, and the mixture was well stirred and then allowed to stand for 30 minutes. The radioactivity of tritium in the mixture was counted by liquid scintillation counter. The intima thickening inhibitory activity of the test compound was calculated by the following equation. [formula] L (c): The amount of tritium in the left common carotid artery in the control group (dpm)
# R (c): The amount of tritium in the right common carotid artery in the control group (dpm)
# L: The amount of tritium in the left common carotid artery in the test compound-treated group (dpm)
# [2] = test system: platelet aggregation (collagen); test: Platelet aggregation inhibitory activity, collagen-induced (Born's turbidimetry, rabbit PRP); type: cell-based, male rabbit (NZW); settings: Oryctolagus cuniculus, collagen 20 μg/ml final, 37° C.
# Experimental: (§1) Pharmacological Experiment 1 Platelet aggregation inhibitory activity
# (§2) (1) Preparation of platelet rich plasma (PRP):
# (§3) The blood was collected from the carotid of a male rabbit without anesthesia (NZW species, body weight; 2-3 kg) with mixing thereof with 1/10 volume of citric acid. The blood thus obtained was separated and put into plastic test tubes (each about 7 ml), and centrifuged at 900 rpm for 15 minutes at room temperature to give a turbid supernatant as a platelet rich plasma (PRP). The residue from which PRP is separated was centrifuged at 3000 rpm for 10 minutes, and the supernatant was collected as a platelet poor plasma (PPP). The PRP was diluted with PPP so that the concentration thereof was adjusted to […], and used in the platelet aggregation inhibitory activity test.
# (§4) (2) Method for platelet aggregation inhibitory activity test:
# (§5) The platelet aggregation was tested according to Born's turbidimetry. That is, a test compound was dissolved in dimethylformamide, and the test compound solution (1 μl) thus obtained was put into a cuvette, and thereto was further added PRP (200 μl). Immediately thereafter, the cuvette was set into an apparatus for determining platelet aggregation activity, PAM-8T (manufactured by Mevanix Inc.), and the mixture was incubated at 37° C. Precisely three minutes thereafter, a solution of adenosine diphosphate (ADP, PA test ADP [MCM], purchased by MC Medical Ltd.) in physiological saline solution or a collagen solution (Collagenreagent Horm, purchased by MC Medical Ltd.) (20 μl) was added thereto. The final concentration of the ADP solution or the collagen solution was 7.5 μM or 20 μg/ml, respectively.
# (§6) The maximum aggregation rate and the aggregation inhibitory rate were calculated by the following equations. [formula]
# (§7) IC50, which is a concentration of the test compound being required to inhibit the platelet aggregation reaction by 50%, was determined from the aggregation inhibitory rates at two different concentrations of a test compound.
# [3] = test system: death induced by pulmonary infarction in mice; test: Antithrombotic activity: inhibition of death by collagen-induced pulmonary infarction in mice; type: in vivo, male ICR mice; settings: Mus musculus, 1 h; 30 mg/kg oral, 10 minutes before i.v. collagen; lethality in an hour; read-out: Pulmonary infarction inhibitory activity
# Excerpt: Pharmacological Experiment 2 Antithrombotic activity
# Antithrombotic activity of the test compounds was estimated by an inhibitory activity of the test compound by oral administration against death induced by pulmonary infarction in mice which was introduced by intravenous administration of collagen (pulmonary infarction inhibitory activity).
# Male ICR mice (5-week old, body weight; about 25 g) was fasted overnight, and separated into groups (15 mice per each group) and numbered. A test compound solution, which was prepared by suspending a test compound in 1% hydroxypropylmethyl cellulose 2910 TC-5 (HPMC, manufactured by Shin-etsu Chemical Co., Ltd.), was orally administered to the mice, and 10 minutes thereafter, a collagen solution (the method for preparation thereof and a dose thereof are explained hereafter) was injected to the mice at the tail vein at the constant rate. The lethality of the mice was determined by the number of mice which were died in an hour after the administration of collagen solution. The antithrombotic activity of the test compound was estimated by the inhibitory rate (%) of the lethality of the mice. The collagen solution was prepared by dissolving collagen (Type III, manufactured by Sigma Chemical Ltd.) in 0.05 M acetic acid solution containing 2 mM calcium chloride and 5% glucose at 4° C. so that the final concentration of collagen was adjusted to 2.5 mg/ml, and then the pH value thereof was adjusted to pH 7.4 with sodium hydroxide the day before the experiment. The collagen solution was incubated with stirring at 37° C. for two hours, and then further stirred at room temperature overnight. Just before the experiment, the pH value of the collagen solution was adjusted again to pH 7.4. The amount of the collagen solution which was injected at the tail vein was previously determined so that the lethality by pulmonary infarction induced thereby became about 75%.
# [4] = test system: platelet aggregation (ADP); test: Platelet aggregation inhibitory activity, ADP-induced (Born's turbidimetry, rabbit PRP); type: cell-based, male rabbit (NZW); settings: Oryctolagus cuniculus, ADP 7.5 μM final, 37° C.
# Experimental: as §1, §2, §3, §4, §5, §6, §7
# [5] = target: T1, cGMP-inhibited cAMP phosphodiesterase (PDE3) (Homo sapiens, UniProt Q14432); test: cGMP-inhibited cAMP phosphodiesterase (PDE3) inhibitory activity; type: biochemical; settings: 0.4 μM [8-3H]cAMP, pH 8.0, 30° C., 15 minutes; recombinant enzyme from Sf9; read-out: PDE inhibitory activity IC50
# T1 construct: made in house; host or cells: insect cell Sf9, baculovirus expression system
# T1 sequence (Q14432 whole entry): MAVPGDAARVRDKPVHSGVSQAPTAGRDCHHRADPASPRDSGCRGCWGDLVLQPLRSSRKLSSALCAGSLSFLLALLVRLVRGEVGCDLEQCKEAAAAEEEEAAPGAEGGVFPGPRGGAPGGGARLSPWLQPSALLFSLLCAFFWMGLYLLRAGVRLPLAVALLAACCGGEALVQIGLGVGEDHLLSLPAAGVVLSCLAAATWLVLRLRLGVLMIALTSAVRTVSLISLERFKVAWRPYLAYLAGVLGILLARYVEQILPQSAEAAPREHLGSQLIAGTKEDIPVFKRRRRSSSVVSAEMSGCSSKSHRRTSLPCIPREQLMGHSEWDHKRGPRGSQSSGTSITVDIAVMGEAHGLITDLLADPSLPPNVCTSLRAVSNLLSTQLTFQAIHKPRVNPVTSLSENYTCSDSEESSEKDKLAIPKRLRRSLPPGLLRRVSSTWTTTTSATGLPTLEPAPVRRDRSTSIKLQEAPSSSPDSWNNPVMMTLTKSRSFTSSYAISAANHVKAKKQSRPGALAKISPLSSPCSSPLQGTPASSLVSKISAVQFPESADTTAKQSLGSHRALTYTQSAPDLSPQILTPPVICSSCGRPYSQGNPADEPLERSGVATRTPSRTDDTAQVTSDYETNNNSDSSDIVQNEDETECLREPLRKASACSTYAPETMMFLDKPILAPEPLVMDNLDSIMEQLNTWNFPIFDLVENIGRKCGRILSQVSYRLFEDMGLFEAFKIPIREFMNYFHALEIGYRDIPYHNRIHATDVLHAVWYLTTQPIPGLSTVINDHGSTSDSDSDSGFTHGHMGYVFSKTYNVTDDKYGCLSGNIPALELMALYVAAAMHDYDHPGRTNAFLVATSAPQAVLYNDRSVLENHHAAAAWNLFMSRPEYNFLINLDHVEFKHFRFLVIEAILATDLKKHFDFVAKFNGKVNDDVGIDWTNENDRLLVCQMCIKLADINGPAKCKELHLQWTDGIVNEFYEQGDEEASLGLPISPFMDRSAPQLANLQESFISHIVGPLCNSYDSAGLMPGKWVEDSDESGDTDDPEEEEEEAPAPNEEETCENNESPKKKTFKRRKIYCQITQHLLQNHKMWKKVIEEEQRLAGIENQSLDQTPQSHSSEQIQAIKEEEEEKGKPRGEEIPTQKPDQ
SMILES,inhibition in vivo at 10 mg/kg [1] [%],IC50 [2] [nM],inhibition in vivo at 30 mg/kg [3] [%],IC50 [4] [nM],inhibition in vivo at 30 mg/kg [1] [%],IC50 [5] [nM]
"O=C(NCCCOc1ccc2[nH]c(=O)ccc2c1)N(C1CC1)[C@@H]1CCCC[C@H]1O (relative stereo) [Ex. 6, 6-{3-[3-(trans-2-hydroxycyclohexyl)-3-cyclopropylureido]propoxy}carbostyril]",31.4,1900,100,1800,–,–
"CC(=O)O[C@@H]1CCCC[C@H]1N(C(=O)NCCCOc1ccc2[nH]c(=O)ccc2c1)C1CC1 (relative stereo) [Ex. 7, 6-{3-[3-(trans-2-acetyloxycyclohexyl)-3-cyclopropylureide]propoxy}carbostyril]",–,2100,67,18200,15.2,–
O=C(NCCCOc1ccc2[nH]c(=O)ccc2c1)N(C1CCCCCC1)[C@@H]1CCCC[C@H]1O (relative stereo) [Ex. 18],–,30,69,120,19,–
O=C(NCCCOc1ccc2[nH]c(=O)ccc2c1)N(C1CCCCCCC1)[C@@H]1CCCC[C@H]1O (relative stereo) [Ex. 24],–,30,100,80,–,0.647
O=C1CCc2cc(OCCCNC(=O)N(C3CC3)[C@@H]3CCCC[C@H]3O)cc(F)c2N1 (relative stereo) [Ex. 25],–,3900,100,4650,–,–
O=C(NCCCOc1cc(F)c2[nH]c(=O)ccc2c1)N(C1CC1)[C@@H]1CCCC[C@H]1O (relative stereo) [Ex. 26],–,3030,85,450,16,74.6
COc1cc(OCCCNC(=O)N(C2CC2)[C@@H]2CCCC[C@H]2O)cc2ccc(=O)[nH]c12 (relative stereo) [Ex. 27],–,31600,80,31600,–,2180
O=C(NCCOc1ccc2[nH]c(=O)ccc2c1)N(C1CC1)[C@@H]1CCCC[C@H]1O (relative stereo) [Ex. 30],–,2940,100,3670,–,–
"O=C(NCCCOc1ccc2nc(O)ccc2c1)N(C1CC1)[C@H]1CCCC[C@@H]1O [Ex. 8, (S,S)-(+)-6-{3-[3-(2-Hydroxycyclohexyl)-3-cyclopropylureido]propoxy}-carbostyril]",–,2000,100,2100,13.3,113
"O=C(NCCCOc1ccc2[nH]c(=O)ccc2c1)N(C1CC1)[C@@H]1CCCC[C@H]1O [Ex. 9, (R,R)-(-)-6-{3-[3-(trans-2-hydroxycyclohexyl)-3-cyclopropylureido]propoxy}carbostyril]",26.8,2000,100,1900,–,93
CCC(CN(C(=O)NCCCOc1ccc2[nH]c(=O)ccc2c1)C1CCCCC1)OC(C)=O (stereo not drawn) [Ex. 11],–,2100,80,600,33,–
"CCC(O)CN(C(=O)N(C)CCCOc1ccc2[nH]c(=O)ccc2c1)C1CCCCC1 (stereo not drawn) [Ex. 13, 6-{3-[1-methyl-3-cyclohexyl-3-(2-hydroxybutyl)ureido]propoxy}carbostyril]",–,2000,58,2100,16.6,–
"CCC(CN(C(=O)N(C)CCCOc1ccc2[nH]c(=O)ccc2c1)C1CCCCC1)OC(C)=O (stereo not drawn) [Ex. 14, 6-{3-[1-methyl-3-cyclohexyl-3-(2-acetyloxybutyl)ureido]propoxy}carbostyril]",–,2200,66,1500,15.7,–
CCN(CCCOc1ccc2[nH]c(=O)ccc2c1)C(=O)N(C)C1CCCCC1 [Ex. 15],–,16100,86,15200,11.9,–
"C=CCN(CCCOc1ccc2[nH]c(=O)ccc2c1)C(=O)N(C)C1CCCCC1 [Ex. 16, 6-[3-(3-Cyclohexyl-3-methyl-1-allylureido)propoxy]carbostyril]",–,20000,77,4600,33.3,–
CCOC(CC)CN(C(=O)NCCCOc1ccc2[nH]c(=O)ccc2c1)C1CCCCC1 (stereo not drawn) [Ex. 19],–,590,84,180,23.4,–
CCC(CN(C(=O)NCCCOc1ccc2[nH]c(=O)ccc2c1)C1CCCCC1)OCc1ccccc1 (stereo not drawn) [Ex. 20],–,290,66,220,–,–
CC(O)CN(CCCOc1ccc2[nH]c(=O)ccc2c1)C(=O)N(C)C1CCCCC1 (stereo not drawn) [Ex. 21],–,3250,59,2080,–,–
CN(C(=O)N(CCCO)CCCOc1ccc2[nH]c(=O)ccc2c1)C1CCCCC1 [Ex. 22],–,2800,69,1310,–,–
"CCCN(CCCOc1ccc2[nH]c(=O)ccc2c1)C(=O)N(C)C1CCCCC1 [Ex. 23, 6-[3-(3-cyclohexyl-3-methyl-1-propylureido)propoxy]carbostyril]",–,2510,90,13400,–,–
O=C(NCCCOc1ccc2[nH]c(=O)ccc2c1)NN(C1CCCCC1)C1CC1 [Ex. 29],–,30,91,10,29.3,–
O=C(NCCCCOc1ccc2[nH]c(=O)ccc2c1)N(C1CC1)[C@@H]1CCCC[C@H]1O [Ex. 31],–,2570,48,15700,–,–
